Measurements from US9156809B2, “Carboxy ester ketals, methods of manufacture, and uses thereof” (SEGETIS, INC., priority 2012, dated 2015).

Key:
[1] = Relative VOC content / volatility by TGA emulating ASTM D2369; details: 110° C., nitrogen purge, 15 mg
Method: Here, 15 milligrams (mg) of each coalescent solvent was maintained at 110° C. for one hour with a nitrogen purge in a thermogravimetric analyzer (TGA).

[2] = Solubility of personal care or medicinal active agents in ketal; details: 50/50 mixture, room temperature
Description: Certified organic tea tree oil (Melaleuca alternifolia, plant sourced from Australia and extracted by steam distillation) can be purchased from Wyndmere Naturals.
The recommended usage rate is 0.1-1%.
The recommended usage rate is 0.01-0.05%.

[3] = Hydrolytic stability of coalescent solvents at elevated temperature (45° C.); assay type: physicochemical; details: 1.0 g coalescent in 10 g Rhoplex SG-10M; for Initial pH: adjusted to pH 9 with ammonia, 45° C. study; for pH 1 week / pH 2 weeks: stored at 45° C.
Method: (§1) Latex formulations were prepared by adding 1.0 gram of each coalescent solvent to 10 grams of an acrylic latex (Rhoplex SG-10M available from Dow Chemical Company) and adjusting the pH of each sample to a pH of 9 using ammonia. A control latex formulation was prepared without adding a coalescent solvent.

[4] = Compatibility between waxes and alkyl ketal esters; assay type: physicochemical
Description: Compatibility between various waxes and the alkyl ketal esters are first determined as detailed below. Table 13 below details the fragrant formulations for different candles that contain the fragrant composition.

[5] = Miscibility of alkyl ketal ester with essential oil; assay type: physicochemical; details: room temperature
Description: The alkyl ketal ester and the essential oil are blended in a weight ratio of 1:1 at room temperature using gentle agitation. Solubility is visually determined immediately after mixing. Clear solutions are described as “miscible” and solutions that are either cloudy or show evidence of a second phase are labeled as “immiscible.”

[6] = Hydrolytic stability of coalescent solvents at room temperature (pH of latex formulation); assay type: physicochemical; details: 1.0 g coalescent in 10 g Rhoplex SG-10M; for Initial pH: adjusted to pH 9 with ammonia, room temperature; for pH 1 week / pH 2 weeks / pH 3 weeks / pH 4 weeks: stored at room temperature
Description: The pH of latex formulations containing ester-functionalized coalescent solvents was monitored over time to evaluate hydrolytic stability of the coalescent solvents. Not wishing to be bound by theory, ester hydrolysis may occur at a high alkaline pH (for example a pH greater than about 9) during storage of latex compositions. The resulting hydrolysis products lower the pH of the latex composition and could decrease the coalescing efficiency of the coalescing solvent with respect to the initial amount of the coalescing solvent.
as §1

[7] = Model ethanolic sunscreen solutions, miscibility; assay type: physicochemical; details: by itself
Method: Three-component mixtures of ketal, ethanol, and avobenzone are prepared by mixing the materials at various proportions at room temperature in a vial and shaking. Avobenzone by itself is immiscible in ethanol at the 5% by weight level. The ketals used are as follows: A: ketal is 2EH-LPK; Example B: ketal is 1N-LPK. Example C: ketal is 355TMH-LPK.
Three-component mixtures of ketal, ethanol, and oxybenzone are prepared by mixing the materials at various proportions at room temperature in a vial and shaking. The ketals used are as follows: A: ketal is 2EH-LPK; Example B: ketal is 1N-LPK. Example C: ketal is 355TMH-LPK. Clear mixtures are considered to be “miscible” on this test, whereas cloudy or phase separated mixtures are considered to be “immiscible.” Oxybenzone by itself is immiscible in ethanol at the 10% by weight level.

[8] = Beeswax, 50/50 weight ratio, heated to 80° C., cooled to room temperature
[9] = Carnauba wax, 50/50 weight ratio, heated to 120° C.
[10] = Paraffin wax, 50/50 weight ratio, heated to 80° C., cooled to room temperature
[11] = Paraffin wax, 75/25 weight ratio, heated to 80° C., cooled to room temperature
[12] = Stearic acid, 50/50 weight ratio, heated to 80° C., cooled to room temperature
[13] = with Basil (Ocimum basilicum) essential oil
[14] = with Bergamot (Citrus bergamia) essential oil
[15] = with Birch sweet (Betula lenta) essential oil
[16] = with Citronella (Cymbopogon nardus) essential oil
[17] = with Coriander seed (Coriandrum sativum) essential oil
[18] = with Geranium (Pelargonium graveolens) essential oil
[19] = with Lavender (Lavandula angustifolium) essential oil
[20] = with Myrrh (Commiphora myrrha) essential oil
[21] = with Orange (Citrus sinensis) essential oil
[22] = with Patchouli (Pogostemon patchouli) essential oil
[23] = with Pine needle (pinus sylvestris) essential oil
[24] = with Vetiver (Vetivera zizanoides) essential oil
[25] = with Ylang ylang (Canaga odorata) essential oil

In the case of “2,2,4-trimethyl-1,3-pentanediol monoisobutyrate [TPM]”, the “% mass remaining” value ([1]; 0 min) is reported as 100%, the “% mass remaining” value ([1]; 5 min) is reported as 74% and the “% mass remaining” value ([1]; 10 min) is reported as 49%. For the same compound, the “% mass remaining” value ([1]; 15 min) was 26%, the “% mass remaining” value ([1]; 20 min) was 4% and the “% mass remaining” value ([1]; 30 min) was 0%. For the same compound, the “% mass remaining” value ([1]; 60 min) was 0%.

With CCCCCCCCCOC(=O)CCC1(C)OCC(C)O1 (stereo not drawn) [1N-LPK, 1-nonyl levulinate propylene glycol ketal] the “Miscibility with tea tree oil” value [2] was “miscible”, the “Initial pH” value [3] was 8.92 and the “pH 1 week” value [3] was 8.75. For the same compound, the “pH 2 weeks” value [3] was 8.63, the “Compatibility with wax upon cooling” value [4, 8] was “single homogenous wax layer” and the “Compatibility with wax upon cooling” value [4, 9] was “single homogenous wax layer”. The “Compatibility with wax upon cooling” value [4, 10] was “single homogenous wax layer”, the “Compatibility with wax upon cooling” value [4, 11] was “single homogenous wax layer” and the “Compatibility with wax upon cooling” value [4, 12] was “single homogenous wax layer”. The “Miscibility of 50/50 blend by weight” value [5, 13] was “Miscible”, the “Miscibility of 50/50 blend by weight” value [5, 14] was “Miscible” and the “Miscibility of 50/50 blend by weight” value [5, 15] was “Miscible”. The “Miscibility of 50/50 blend by weight” value [5, 16] was “Miscible”, the “Miscibility of 50/50 blend by weight” value [5, 17] was “Miscible” and the “Miscibility of 50/50 blend by weight” value [5, 18] was “Miscible”. For the same compound, the “Miscibility of 50/50 blend by weight” value [5, 19] was “Miscible”, the “Miscibility of 50/50 blend by weight” value [5, 20] was “Miscible” and the “Miscibility of 50/50 blend by weight” value [5, 21] was “Miscible”. The “Miscibility of 50/50 blend by weight” value [5, 22] was “Miscible”, the “Miscibility of 50/50 blend by weight” value [5, 23] was “Miscible” and the “Miscibility of 50/50 blend by weight” value [5, 24] was “Miscible”. For the same compound, the “Miscibility of 50/50 blend by weight” value [5, 25] was “Miscible”.

With CCCCC(CC)COC(=O)CCC1(C)OCC(C)O1 (stereo not drawn) [2EH-LPK, 2-ethylhexyl levulinate propylene glycol ketal] the “Miscibility with tea tree oil” value [2] was “miscible”, the “Initial pH” value [6] was 8.97 and the “pH 1 week” value [6] was 8.99. For the same compound, the “pH 2 weeks” value [6] was 8.94, the “pH 3 weeks” value [6] was 9.03 and the “pH 4 weeks” value [6] was 9.00. The “Compatibility with wax upon cooling” value [4, 8] was “single homogenous wax layer”, the “Compatibility with wax upon cooling” value [4, 9] was “single homogenous wax layer” and the “Compatibility with wax upon cooling” value [4, 10] was “single homogenous wax layer”. For the same compound, the “Compatibility with wax upon cooling” value [4, 11] was “single homogenous wax layer”, the “Compatibility with wax upon cooling” value [4, 12] was “single homogenous wax layer” and the “Miscibility of 50/50 blend by weight” value [5, 13] was “Miscible”. For the same compound, the “Miscibility of 50/50 blend by weight” value [5, 14] was “Miscible”, the “Miscibility of 50/50 blend by weight” value [5, 15] was “Miscible” and the “Miscibility of 50/50 blend by weight” value [5, 16] was “Miscible”. For the same compound, the “Miscibility of 50/50 blend by weight” value [5, 17] was “Miscible”, the “Miscibility of 50/50 blend by weight” value [5, 18] was “Miscible” and the “Miscibility of 50/50 blend by weight” value [5, 19] was “Miscible”. The “Miscibility of 50/50 blend by weight” value [5, 20] was “Miscible”, the “Miscibility of 50/50 blend by weight” value [5, 21] was “Miscible” and the “Miscibility of 50/50 blend by weight” value [5, 22] was “Miscible”. For the same compound, the “Miscibility of 50/50 blend by weight” value [5, 23] was “Miscible”, the “Miscibility of 50/50 blend by weight” value [5, 24] was “Miscible” and the “Miscibility of 50/50 blend by weight” value [5, 25] was “Miscible”.

For CC(CCOC(=O)CCC1(C)OCC(C)O1)CC(C)(C)C (stereo not drawn) [355TMH-LPK, 3,5,5-trimethylhexyl levulinate propylene glycol ketal], the “Miscibility with tea tree oil” value [2] was “miscible”, the “Initial pH” value [3] was 8.92 and the “pH 1 week” value [3] was 8.78. For the same compound, the “pH 2 weeks” value [3] was 8.64, the “Compatibility with wax upon cooling” value [4, 8] was “single homogenous wax layer” and the “Compatibility with wax upon cooling” value [4, 9] was “single homogenous wax layer”. The “Compatibility with wax upon cooling” value [4, 10] was “single homogenous wax layer”, the “Compatibility with wax upon cooling” value [4, 11] was “single homogenous wax layer” and the “Compatibility with wax upon cooling” value [4, 12] was “single homogenous wax layer”. For the same compound, the “Miscibility of 50/50 blend by weight” value [5, 13] was “Miscible”, the “Miscibility of 50/50 blend by weight” value [5, 14] was “Miscible” and the “Miscibility of 50/50 blend by weight” value [5, 15] was “Miscible”. For the same compound, the “Miscibility of 50/50 blend by weight” value [5, 16] was “Miscible”, the “Miscibility of 50/50 blend by weight” value [5, 17] was “Miscible” and the “Miscibility of 50/50 blend by weight” value [5, 18] was “Miscible”. The “Miscibility of 50/50 blend by weight” value [5, 19] was “Miscible”, the “Miscibility of 50/50 blend by weight” value [5, 20] was “Miscible” and the “Miscibility of 50/50 blend by weight” value [5, 21] was “Miscible”. The “Miscibility of 50/50 blend by weight” value [5, 22] was “Miscible”, the “Miscibility of 50/50 blend by weight” value [5, 23] was “Miscible” and the “Miscibility of 50/50 blend by weight” value [5, 24] was “Miscible”. For the same compound, the “Miscibility of 50/50 blend by weight” value [5, 25] was “Miscible”.

With COc1ccc(C(=O)CC(=O)c2ccc(C(C)(C)C)cc2)cc1 [Avobenzone, avobenzone] the Miscibility in ethanol ([7]; 5% by weight level in ethanol) was “immiscible”.

For CCOC(=O)CCC1(C)OCC(C)O1 (stereo not drawn) [EtLPK, ethyl levulinate propylene glycol ketal], the “Initial pH” value [3] was 8.95, the “pH 1 week” value [3] was 8.06 and the “pH 2 weeks” value [3] was 7.53. The “Initial pH” value [6] was 9.00, the “pH 1 week” value [6] was 8.69 and the “pH 2 weeks” value [6] was 8.53. For the same compound, the “pH 3 weeks” value [6] was 8.41 and the “pH 4 weeks” value [6] was 8.24.

In the case of COc1ccc(C(=O)c2ccccc2)c(O)c1 [Oxybenzone, oxybenzone], the Miscibility in ethanol ([7]; 10% by weight level in ethanol) is reported as “immiscible”.

In the case of CC(C)OC(=O)CCC1(C)OCC(C)O1 (stereo not drawn) [iPrLPK, isopropyl levulinate propylene glycol ketal], the “Initial pH” value [6] is reported as 8.93, the “pH 1 week” value [6] is reported as 8.79 and the “pH 2 weeks” value [6] is reported as 8.73. The “pH 3 weeks” value [6] was 8.71 and the “pH 4 weeks” value [6] was 8.64.
